Laboratory results from patent publication US8372950B2, “IgG binding peptide” (Kagoshima University, priority 2006, dated 2013).
Each block holds one compound with its values, some of them ahead of it. Positions of bridges follow the written chain, without caps; N, C: chain ends. Residues, ends and D or L forms follow the SMILES beside them. No end group written: not given here. *: point of attachment. Biotin = O=C1N[C@H]2[C@H](CS[C@H]2CCCCC(=O)*)N1; Ahx = NCCCCCC(=O)O

Assays:
[1] = system: human IgG; assay: SPR kinetic analysis of binding between synthetic peptides and human IgG; conditions: for association rate constants (ka) / dissociation rate constants (kd) / Kd: biotinylated peptide immobilized on sensor chip SA, human IgG as analyte, 25° C.; for Kd: read-out: Dissociation constants (Kd)
Description: Binding between the synthetic peptide IMGpep-1, IMGpep-1E6Q, IMGpep-4, or IMGpep-4K6R and human IgG was subjected to kinetic analysis of binding using surface plasmon resonance (SPR). SPR analysis was carried out using BIAcore2000 (BIAcore) at 25° C. Necessary reagents and sensor chips were purchased from BIAcore and then used. A 50 μM solution (pH 5) of each of four biotinylated synthetic peptides (IMGpep-1, IMGpep1E6Q, IMGpep4, and IMGpep-4K6R) was injected over a sensor chip SA, so as to immobilize the peptide on the chip. The amount of each peptide to be immobilized was adjusted so that the RU (response unit) ranged from 1500 to 2000. Subsequently, human IgG (analyte) was injected at a flow rate of 10 μl/min and at various concentrations (660 nM, 330 nM, 165 nM, 82 nM, and 41 nM) through flow cells with the aforementioned sensor chips SA on which the biotinylated-peptides had been immobilized. Binding reaction between human IgG and the peptides was measured. Thereafter, washing with running buffer (HBS-T) was conducted and then dissociation reaction was measured. For washing/elution of bound analytes from the sensor chips, 0.2 M glycine-HCl buffer (pH 2.7) was used. Binding parameters were analyzed using BIA evaluation Version 3.2 software.

[2] = system: human IgG; assay: ELISA assay of biotinylated synthetic peptides on human IgG; format: binding; conditions: FIG. 6; for binding to human IgG: biotinylated peptide
Description: (§1) The binding activity of the thus obtained biotinylated synthetic peptides to human IgG was assayed by an ELISA assay. The ELISA assay was conducted basically in a manner similar to that in Example 1. Specifically, wells coated with human IgG (100 ng/50 μl/well) were blocked by the addition of 0.5% BSA. A biotinylated synthetic peptide and alkaline phosphatase-labeled streptavidin (SA-AP) were mixed in advance at a molar ratio of 4:1 and then the mixture was added to the well, followed by 1 hour of reaction. Para-nitrophenyl phosphate (Wako) was used for color development. Detection was carried out by measuring absorbance at 405 nm. As a positive control of human IgG, the Fc fragment of hIgG was used. As other control proteins, human IgA and IgE, mouse IgG, IgA, and IgE, hTF, fetal bovine serum (FBS), HSA, BSA, and gelatin were used.

[3] = system: human IgG isotypes (hIgG1 to hIgG4); assay: ELISA assay of biotinylated synthetic peptides on human IgG isotypes; format: binding; conditions: FIG. 7
Description: as §1
Furthermore, the binding activity of the biotinylated synthetic peptides to human IgG isotypes (hIgG1 to hIgG4), was assayed similarly by an ELISA assay. As a control protein of human IgG, BSA was used.

[4] = system: Fc fragment of hIgG; assay: ELISA assay of biotinylated synthetic peptides on Fc fragment; format: binding, human; conditions: biotinylated peptide, FIG. 6
Description: as §1

[5] = system: human IgG; assay: immunoprecipitation of human IgG with peptide- or phage-immobilized magnetic beads; format: binding; conditions: immobilized on magnetic beads, FIG. 9; for immunoprecipitated human IgG: western blotting
Description: The above cloned T7 phage G-1 (1.0×10^12 pfu) subjected to ultracentrifuge purification or a synthetic peptide IMGpep-1 (150 nmol) was immobilized on 3 mg of tosyl-activated M450 Dynabeads magnetic beads (Dynal) via covalent binding to the terminal amino group according to the protocols recommended by the manufacturer. The beads were blocked with a PBS solution containing 0.5% BSA and then added to 1 ml of hIgG/BSA/PBS (10 μg/ml hIgG and 1 mg/ml BSA), followed by 1 hour of reaction at room temperature while mixing the solution via stirring. Beads were washed 3 times with PBST, SDS-sample buffer was added thereto, and then SDS-PAGE fractionation was carried out. Subsequently, they were subjected to western blotting analysis using a biotinylated anti-hIgG goat polyclonal antibody (Goat Anti-hIgG-pAb-biotin; Pharmingen) and SA-HRP, and then human IgG immunoprecipitated by binding to beads was detected.
Furthermore, immunoprecipitation reaction was similarly carried out using phage clones G-1 415 or IMGpep-2 instead of phage G-1 or IMGpep-1 to detect human IgG. Here, the phage clone G-1 415 (Novagen) is a phage displaying G-1 peptide at all the 415 G10 proteins composing the capsid of T7 phage. Moreover, immunoprecipitation reaction and detection were similarly carried out using an anti-hIgG goat (Fab′)2 fragment, wild-type T7 phage, and BSA, as a control of phage G-1 or IMGpep-1.

[6] = target: T1, human MRA (IgG) (Homo sapiens, UniProt P01857); assay: dot blotting detection of human MRA (IgG) on nitrocellulose membranes; format: binding
T1 construct: purchased Chugai Pharmaceutical
T1 sequence (P01857 1-330 isoform P01857-1, other chains not shown): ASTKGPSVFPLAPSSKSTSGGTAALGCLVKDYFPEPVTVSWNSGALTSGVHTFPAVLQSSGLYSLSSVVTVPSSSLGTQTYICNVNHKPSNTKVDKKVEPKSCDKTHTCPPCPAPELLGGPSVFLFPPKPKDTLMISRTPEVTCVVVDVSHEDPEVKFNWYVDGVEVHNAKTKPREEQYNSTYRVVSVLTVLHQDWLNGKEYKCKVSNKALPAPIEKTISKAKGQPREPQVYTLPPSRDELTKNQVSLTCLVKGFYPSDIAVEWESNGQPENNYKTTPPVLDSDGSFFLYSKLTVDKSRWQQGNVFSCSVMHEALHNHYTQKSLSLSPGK
Description: Specifically, acid-treated human MRA (IgG) and untreated human MRA (IgG) were spotted on nitrocellulose membranes in an amount of 1.5 ng, 3 ng, 6 ng, 12.5 ng, 25 ng, 50 ng, and 100 ng per spot. The membranes were dried for 5 minutes and then 0.5% BSA was added for blocking for 2 hours at room temperature. Here, acid-treated human MRA was prepared by adding 10 μl of 1 M glycine-HCl (pH 2.8) to 100 μl of humanized anti-human IL-6 receptor IgG antibody (MRA) (2000 μg/ml, PBS solution), carrying out incubation at 40° C. for 10 minutes, and then neutralizing it by the addition of 30 μl of 1 M Tris-HCl (pH 8.7).
The mixture was added to the membranes blocked as described above, followed by 1 hour of reaction. After 3 times of washing with PBS containing 0.1% Tween20, a chemiluminescence reagent (Chemi-Lumi One, Nakalai Tesque) was added. Images were analyzed for detection using a LAS-1000 Image Analyzer (Fuji Film).

[7] = target: T2, human IgG MRA (Homo sapiens, UniProt P01857); assay: immunoprecipitation of MRA fractions with IMGpep-4K6R peptide; format: binding
T2 construct: purchased Chugai Pharmaceutical
T2 sequence (P01857 1-330 isoform P01857-1, other chains not shown): as above
Description: An immunoprecipitation experiment using an IMGpep-4K6R peptide was conducted by a method similar to that employed in Example 8 for each of an untreated MRA sample, an acid-treated MRA sample (acid treated for 10 minutes at pH 2.2 and 4° C.), a flow-through fraction obtained by passing an acid-treated MRA sample through a biotinylated IMGPep-4K6R peptide-immobilized column, and a purified acid-denatured MRA sample (an adsorbed fraction obtained by passing a human IgG sample subjected to 10 minutes of acid treatment at pH 2.2 and 4° C. through an IMGpep-4K6R peptide-immobilized column). IgG precipitated with the peptide immobilized on magnetic beads was subjected to 12.5% SDS-PAGE and then to CBB staining, and then observed.

[8] = target: T3, anti-HER2 human IgG (Homo sapiens, UniProt P01857); assay: separation on IMGpep-4K6R-immobilized column; format: binding; conditions: untreated anti-HER2 human IgG sample
T3 construct: purchased Herceptin
T3 sequence (P01857 1-330 isoform P01857-1, other chains not shown): as above
Description: Moreover, a biotinylated IMGPep-4K6R peptide (biotin-spacer-[…] (SEQ ID NO: 11)) solution (500 μM, 1 ml) was injected to a HiTrap Streptavidin HP column (GE Healthcare) to prepare the column in which IMGPep-4K6R was immobilized. The antibody sample was injected at a flow rate of 0.4 ml/min to the IMGPep-4K6R-immobilized column. Gradient elution was carried out using from 20 mM phosphate buffered saline (PBS, pH 7.0) containing 0.1 M NaCl to 0.1M glycine-HCl (pH 2.5) containing 0.1 M NaCl.

[9] = target: IgG antibody; conditions: literature (DeLano et al.; Dias et al.); cited from earlier work

Compound: DCAWHLGELVWCT [Fc-III]
Kd [9]: 185 nM

Compound: GCTGFWEREWGLCG [IMGpep-2]
immunoprecipitated human IgG [5]: clearly observed

Compound: GSGYWRSEWGLSG ({Biotin-Ahx}-GSGYWRSEWGLSG) [IMGpep-1CS]
increased response signal due to the binding ([1]; control ligand immobilized, human IgG injected): never observed | binding to human IgG [2]: almost lose the binding activity | detection of spots of untreated human MRA (IgG) ([6]; untreated MRA, CS(N)): could not detect any spots | binding activity to human IgG1, IgG2, IgG3, and IgG4 [3]: almost completely lose its binding activity

Further lines, with some results ahead:

association rate constants (ka) [1]: 15000 M⁻¹ s⁻¹ | dissociation rate constants (kd) [1]: 0.00031 s⁻¹ | Kd [1]: 21 nM | binding activity compared with the original peptides IMGpep-1 and IMGpep-4 [2]: significantly and drastically increased | binding activity to human IgG1, IgG2, IgG3, and IgG4 [3]: strong binding activity | binding activity to human IgG1 to IgG4 relative to IMGpep-1 and IMGpep-4 [3]: increase to a greater extent
Compound: CC(C)C[C@@H]1NC(=O)CNC(=O)[C@H](Cc2c[nH]c3ccccc23)NC(=O)[C@H](CCC(N)=O)NC(=O)[C@H](CO)NC(=O)[C@H](CCCNC(=N)N)NC(=O)[C@H](Cc2c[nH]c3ccccc23)NC(=O)[C@H](Cc2ccc(O)cc2)NC(=O)CNC(=O)[C@@H](NC(=O)CNC(=O)CCCCCNC(=O)CCCC[C@@H]2SC[C@@H]3NC(=O)N[C@@H]32)CSSC[C@@H](C(=O)NCC(=O)O)NC1=O [IMGpep-1E6Q] ({Biotin-Ahx}-GCGYWRSQWGLCG-OH; disulfide 2-12)

association rate constants (ka) [1]: 20000 M⁻¹ s⁻¹ | dissociation rate constants (kd) [1]: 0.00034 s⁻¹ | Kd [1]: 17 nM | binding to human IgG [2]: specifically bound to human IgG | binding to the Fc fragment of human IgG [4]: bound to the Fc fragment of human IgG | binding activity to human IgG1, IgG2, IgG3, and IgG4 [3]: strong binding activity
Compound: CC(C)C[C@@H]1NC(=O)CNC(=O)[C@H](Cc2c[nH]c3ccccc23)NC(=O)[C@H](CCC(=O)O)NC(=O)[C@H](CO)NC(=O)[C@H](CCCNC(=N)N)NC(=O)[C@H](Cc2c[nH]c3ccccc23)NC(=O)[C@H](Cc2ccc(O)cc2)NC(=O)CNC(=O)[C@@H](NC(=O)CNC(=O)CCCCCNC(=O)CCCC[C@@H]2SC[C@@H]3NC(=O)N[C@@H]32)CSSC[C@@H](C(=O)NCC(=O)O)NC1=O [IMGpep-1] ({Biotin-Ahx}-GCGYWRSEWGLCG-OH; disulfide 2-12)
human IgG trapping efficiency compared with IMGpep-2 [5]: clearly higher | immunoprecipitated human IgG [5]: clearly observed

association rate constants (ka) [1]: 16000 M⁻¹ s⁻¹ | dissociation rate constants (kd) [1]: 0.00038 s⁻¹ | Kd [1]: 24 nM | binding activity compared with the original peptides IMGpep-1 and IMGpep-4 [2]: significantly and drastically increased | antibody sample sufficiently detected ([6]; acid-treated MRA (pH 2.8, 40° C., 10 minutes), K6R(A)): ≤ 1.5 ng/mL | IgG-detection sensitivity and intensity after acid treatment ([6]; acid-treated MRA, K6R(A)): greatly enhanced | lowest spot of untreated human MRA (IgG) detected ([6]; untreated MRA, K6R(N)): ≤ 1.5 ng/mL | overall signal intensity of the detected spots ([6]; untreated MRA, K6R(N)): significantly weak | immunoprecipitation of MRA antibody ([7]; flow-through fraction of acid-treated MRA, lane 4): never observed | immunoprecipitation of MRA antibody ([7]; untreated MRA, lane 1): not immunoprecipitated | binding activity to human IgG1, IgG2, IgG3, and IgG4 [3]: strong binding activity | binding activity to human IgG1 to IgG4 relative to IMGpep-1 and IMGpep-4 [3]: increase to a greater extent | behaviour of IgG on the column [8]: passed through
Compound: CC(C)C[C@@H]1NC(=O)CNC(=O)[C@H](Cc2c[nH]c3ccccc23)NC(=O)[C@H](C)NC(=O)[C@H](CCCNC(=N)N)NC(=O)[C@@H]2CCCN2C(=O)[C@H](Cc2c[nH]c3ccccc23)NC(=O)[C@H](Cc2ccc(O)cc2)NC(=O)CNC(=O)[C@H]([C@@H](C)O)NC(=O)[C@@H](NC(=O)CNC(=O)CCCCCNC(=O)CCCC[C@@H]2SC[C@@H]3NC(=O)N[C@@H]32)CSSC[C@@H](C(=O)NCC(=O)O)NC1=O [IMGpep-4K6R]

association rate constants (ka) [1]: 14000 M⁻¹ s⁻¹ | dissociation rate constants (kd) [1]: 0.00041 s⁻¹ | Kd [1]: 28 nM | binding to human IgG [2]: specifically bound to human IgG | binding to the Fc fragment of human IgG [4]: bound to the Fc fragment of human IgG | binding activity to human IgG1, IgG2, IgG3, and IgG4 [3]: strong binding activity
Compound: CC(C)C[C@@H]1NC(=O)CNC(=O)[C@H](Cc2c[nH]c3ccccc23)NC(=O)[C@H](C)NC(=O)[C@H](CCCCN)NC(=O)[C@@H]2CCCN2C(=O)[C@H](Cc2c[nH]c3ccccc23)NC(=O)[C@H](Cc2ccc(O)cc2)NC(=O)CNC(=O)[C@H]([C@@H](C)O)NC(=O)[C@@H](NC(=O)CNC(=O)CCCCCNC(=O)CCCC[C@@H]2SC[C@@H]3NC(=O)N[C@@H]32)CSSC[C@@H](C(=O)NCC(=O)O)NC1=O [IMGpep-4] ({Biotin-Ahx}-GCTGYWPKAWGLCG-OH; disulfide 2-13)
